Columns and labels:
Assay in all cases: radiometric filter-binding kinase assay
[1] = target: AURKA (human) (UniProt O14965)
[2] = target: BRSK2 (human) (UniProt Q8IWQ3)
[3] = target: CDK2 CCNA2 (human) (UniProt P20248+P24941)
[4] = target: CHEK1 (human) (UniProt O14757)
[5] = target: CHEK2 (human) (UniProt O96017)
[6] = target: CLK2 (human) (UniProt P49760)
[7] = target: DAPK1 (human) (UniProt P53355)
[8] = target: EEF2K (human) (UniProt O00418)
[9] = target: EPHB4 (human) (UniProt P54760)
[10] = target: ERBB4 (human) (UniProt Q15303)
[11] = target: FLT1 (human) (UniProt P17948)
[12] = target: GCK (human) (UniProt Q12851)
Sequence of GCK (human) (Q12851 whole entry, looked up): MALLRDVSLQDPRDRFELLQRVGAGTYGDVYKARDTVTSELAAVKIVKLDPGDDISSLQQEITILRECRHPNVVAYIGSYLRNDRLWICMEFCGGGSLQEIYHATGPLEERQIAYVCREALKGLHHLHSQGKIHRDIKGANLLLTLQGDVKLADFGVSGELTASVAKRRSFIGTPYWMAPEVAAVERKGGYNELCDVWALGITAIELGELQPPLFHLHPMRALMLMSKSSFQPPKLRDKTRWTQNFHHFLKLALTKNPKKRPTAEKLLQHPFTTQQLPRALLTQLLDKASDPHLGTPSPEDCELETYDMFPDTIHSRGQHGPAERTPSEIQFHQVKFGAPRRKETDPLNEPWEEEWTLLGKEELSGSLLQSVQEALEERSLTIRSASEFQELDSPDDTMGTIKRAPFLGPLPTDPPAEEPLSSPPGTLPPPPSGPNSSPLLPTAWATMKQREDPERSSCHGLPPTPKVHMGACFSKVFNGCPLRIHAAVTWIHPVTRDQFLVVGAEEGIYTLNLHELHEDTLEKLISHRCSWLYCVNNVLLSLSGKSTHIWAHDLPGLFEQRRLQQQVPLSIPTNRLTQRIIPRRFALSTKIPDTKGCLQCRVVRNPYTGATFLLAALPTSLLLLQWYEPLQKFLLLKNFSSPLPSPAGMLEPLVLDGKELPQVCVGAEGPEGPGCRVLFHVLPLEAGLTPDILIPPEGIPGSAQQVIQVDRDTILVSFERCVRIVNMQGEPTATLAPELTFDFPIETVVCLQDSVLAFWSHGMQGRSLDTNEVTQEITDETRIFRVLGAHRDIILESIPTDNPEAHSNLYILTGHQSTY

[13] = target: HIPK1 (human) (UniProt Q86Z02)
[14] = target: HIPK3 (human) (UniProt Q9H422)
[15] = target: JAK2 JH1 JH2 (human) (UniProt O60674)
[16] = target: MAP3K1 (human) (UniProt Q13233)
Sequence of MAP3K1 (human) (Q13233 whole entry, looked up): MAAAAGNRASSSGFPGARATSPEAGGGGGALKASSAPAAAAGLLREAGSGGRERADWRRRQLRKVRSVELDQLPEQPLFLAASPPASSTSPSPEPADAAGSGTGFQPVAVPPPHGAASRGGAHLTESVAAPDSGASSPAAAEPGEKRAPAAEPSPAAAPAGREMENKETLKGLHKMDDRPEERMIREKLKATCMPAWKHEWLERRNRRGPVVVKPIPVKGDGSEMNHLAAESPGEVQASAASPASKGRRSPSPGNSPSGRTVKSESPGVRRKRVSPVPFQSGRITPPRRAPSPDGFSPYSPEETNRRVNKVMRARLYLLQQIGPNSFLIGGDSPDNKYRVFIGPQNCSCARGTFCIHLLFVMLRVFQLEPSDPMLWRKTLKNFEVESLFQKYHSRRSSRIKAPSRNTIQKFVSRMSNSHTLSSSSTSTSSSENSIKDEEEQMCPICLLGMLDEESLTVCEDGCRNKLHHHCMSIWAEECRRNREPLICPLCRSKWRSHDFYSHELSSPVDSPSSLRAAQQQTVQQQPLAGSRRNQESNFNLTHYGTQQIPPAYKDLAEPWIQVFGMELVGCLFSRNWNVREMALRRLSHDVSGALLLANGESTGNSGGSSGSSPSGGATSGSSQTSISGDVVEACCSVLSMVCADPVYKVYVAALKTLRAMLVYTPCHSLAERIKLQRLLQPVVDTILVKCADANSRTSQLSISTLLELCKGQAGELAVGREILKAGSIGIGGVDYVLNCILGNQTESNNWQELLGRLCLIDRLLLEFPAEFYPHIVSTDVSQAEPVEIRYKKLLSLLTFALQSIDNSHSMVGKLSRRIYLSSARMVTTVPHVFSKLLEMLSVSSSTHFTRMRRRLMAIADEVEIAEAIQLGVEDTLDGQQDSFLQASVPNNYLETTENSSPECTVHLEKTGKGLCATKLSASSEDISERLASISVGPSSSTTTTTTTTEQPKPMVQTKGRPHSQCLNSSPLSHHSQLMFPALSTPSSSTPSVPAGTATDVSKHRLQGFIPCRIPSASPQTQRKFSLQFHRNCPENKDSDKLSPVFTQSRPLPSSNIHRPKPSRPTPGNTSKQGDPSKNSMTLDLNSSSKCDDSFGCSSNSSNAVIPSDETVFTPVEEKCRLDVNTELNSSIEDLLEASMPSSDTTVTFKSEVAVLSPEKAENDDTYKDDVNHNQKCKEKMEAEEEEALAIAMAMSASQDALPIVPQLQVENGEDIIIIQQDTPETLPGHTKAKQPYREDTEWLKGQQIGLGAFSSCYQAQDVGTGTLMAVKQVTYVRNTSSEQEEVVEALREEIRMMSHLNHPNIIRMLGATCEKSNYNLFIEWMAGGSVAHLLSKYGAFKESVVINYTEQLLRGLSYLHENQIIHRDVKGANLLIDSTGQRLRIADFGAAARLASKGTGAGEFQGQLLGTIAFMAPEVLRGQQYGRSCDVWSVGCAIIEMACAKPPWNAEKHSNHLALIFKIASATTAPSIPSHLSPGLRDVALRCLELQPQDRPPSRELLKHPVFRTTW

[17] = target: MAP3K5 (human) (UniProt Q99683)
[18] = target: MAPK1 (human) (UniProt P28482)
Sequence of MAPK1 (human) (P28482 whole entry, looked up): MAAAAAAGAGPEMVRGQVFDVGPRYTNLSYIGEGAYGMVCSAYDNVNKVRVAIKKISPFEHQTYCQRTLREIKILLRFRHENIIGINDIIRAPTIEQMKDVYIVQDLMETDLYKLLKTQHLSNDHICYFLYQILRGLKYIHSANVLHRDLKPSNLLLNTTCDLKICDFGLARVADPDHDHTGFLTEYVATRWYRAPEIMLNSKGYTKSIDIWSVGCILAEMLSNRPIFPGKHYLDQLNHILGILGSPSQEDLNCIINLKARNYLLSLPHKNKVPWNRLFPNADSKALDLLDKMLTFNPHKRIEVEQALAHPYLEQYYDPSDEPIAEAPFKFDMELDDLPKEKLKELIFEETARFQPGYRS

[19] = target: MAPK3 (human) (UniProt P27361)
[20] = target: MARK3 (human) (UniProt P27448)
[21] = target: MARK4 (human) (UniProt Q96L34)
[22] = target: MST4 (human) (UniProt Q9P289)
[23] = target: NTRK1 (human) (UniProt P04629)
Sequence of NTRK1 (human) (P04629 whole entry, looked up): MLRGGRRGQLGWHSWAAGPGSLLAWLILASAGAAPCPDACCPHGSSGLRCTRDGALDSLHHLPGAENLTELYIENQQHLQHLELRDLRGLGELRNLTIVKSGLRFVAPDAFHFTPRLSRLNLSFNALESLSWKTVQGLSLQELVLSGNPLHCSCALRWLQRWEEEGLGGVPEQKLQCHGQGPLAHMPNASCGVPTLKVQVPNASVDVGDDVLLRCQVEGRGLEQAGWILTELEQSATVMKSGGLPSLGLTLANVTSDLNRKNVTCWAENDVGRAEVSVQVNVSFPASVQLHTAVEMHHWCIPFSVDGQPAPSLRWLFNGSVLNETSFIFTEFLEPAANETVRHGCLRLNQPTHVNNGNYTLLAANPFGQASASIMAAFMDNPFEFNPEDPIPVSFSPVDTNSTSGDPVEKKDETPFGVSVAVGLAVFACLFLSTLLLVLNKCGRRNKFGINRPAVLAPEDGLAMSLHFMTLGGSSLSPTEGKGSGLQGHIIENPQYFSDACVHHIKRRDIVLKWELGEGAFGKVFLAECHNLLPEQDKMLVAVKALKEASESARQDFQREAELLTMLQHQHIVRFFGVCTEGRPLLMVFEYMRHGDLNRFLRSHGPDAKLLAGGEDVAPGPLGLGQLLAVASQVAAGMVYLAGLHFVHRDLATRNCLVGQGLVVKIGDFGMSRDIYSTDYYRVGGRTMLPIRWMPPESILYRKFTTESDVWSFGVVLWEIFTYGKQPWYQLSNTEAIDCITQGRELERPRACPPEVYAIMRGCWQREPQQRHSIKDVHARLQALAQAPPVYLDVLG

[24] = target: NUAK1 (human) (UniProt O60285)
[25] = target: PAK6 (human) (UniProt Q9NQU5)
[26] = target: PLK1 (human) (UniProt P53350)
[27] = target: PRKCA (human) (UniProt P17252)
[28] = target: PRKCZ (human) (UniProt Q05513)
[29] = target: RPS6KA1 KD1 KD2 (human) (UniProt Q15418)
[30] = target: RPS6KA3 KD1 KD2 (human) (UniProt P51812)
[31] = target: RPS6KA5 KD1 KD2 (human) (UniProt O75582)
[32] = system: SGK1 (human), O00141 [S422D]
[33] = target: SRC (human) (UniProt P12931)
Sequence of SRC (human) (P12931 whole entry, looked up): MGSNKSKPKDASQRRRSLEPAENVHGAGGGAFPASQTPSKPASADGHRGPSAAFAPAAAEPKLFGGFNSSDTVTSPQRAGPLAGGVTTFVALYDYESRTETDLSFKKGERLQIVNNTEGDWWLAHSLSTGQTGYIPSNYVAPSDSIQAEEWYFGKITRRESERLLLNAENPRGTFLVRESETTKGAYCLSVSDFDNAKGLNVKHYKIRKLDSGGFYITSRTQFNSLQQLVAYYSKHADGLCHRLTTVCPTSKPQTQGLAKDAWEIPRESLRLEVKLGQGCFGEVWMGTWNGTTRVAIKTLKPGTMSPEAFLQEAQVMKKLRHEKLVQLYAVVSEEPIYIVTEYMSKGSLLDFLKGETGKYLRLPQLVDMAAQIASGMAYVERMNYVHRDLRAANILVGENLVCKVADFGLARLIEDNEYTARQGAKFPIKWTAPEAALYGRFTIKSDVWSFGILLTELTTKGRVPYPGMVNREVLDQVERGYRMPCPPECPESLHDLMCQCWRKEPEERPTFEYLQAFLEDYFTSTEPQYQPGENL

[34] = target: STK3 (human) (UniProt Q13188)
[35] = target: TAOK1 (human) (UniProt Q7L7X3)

Sequence of CLK2 (human) (P49760 whole entry, looked up): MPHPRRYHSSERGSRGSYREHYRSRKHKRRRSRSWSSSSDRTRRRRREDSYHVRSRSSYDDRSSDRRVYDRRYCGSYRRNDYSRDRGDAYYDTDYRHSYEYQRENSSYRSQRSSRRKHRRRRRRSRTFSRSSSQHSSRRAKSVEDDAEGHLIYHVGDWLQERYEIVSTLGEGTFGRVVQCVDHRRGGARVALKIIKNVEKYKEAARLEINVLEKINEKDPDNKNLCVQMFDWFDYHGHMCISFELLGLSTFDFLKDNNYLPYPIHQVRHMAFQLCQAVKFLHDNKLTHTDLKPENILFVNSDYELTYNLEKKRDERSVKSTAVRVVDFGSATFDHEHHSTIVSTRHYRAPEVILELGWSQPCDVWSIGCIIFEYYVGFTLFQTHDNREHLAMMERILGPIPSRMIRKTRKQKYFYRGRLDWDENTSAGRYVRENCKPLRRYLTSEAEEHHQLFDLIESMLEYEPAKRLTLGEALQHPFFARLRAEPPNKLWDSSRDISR
Sequence of CHEK2 (human) (O96017 whole entry, looked up): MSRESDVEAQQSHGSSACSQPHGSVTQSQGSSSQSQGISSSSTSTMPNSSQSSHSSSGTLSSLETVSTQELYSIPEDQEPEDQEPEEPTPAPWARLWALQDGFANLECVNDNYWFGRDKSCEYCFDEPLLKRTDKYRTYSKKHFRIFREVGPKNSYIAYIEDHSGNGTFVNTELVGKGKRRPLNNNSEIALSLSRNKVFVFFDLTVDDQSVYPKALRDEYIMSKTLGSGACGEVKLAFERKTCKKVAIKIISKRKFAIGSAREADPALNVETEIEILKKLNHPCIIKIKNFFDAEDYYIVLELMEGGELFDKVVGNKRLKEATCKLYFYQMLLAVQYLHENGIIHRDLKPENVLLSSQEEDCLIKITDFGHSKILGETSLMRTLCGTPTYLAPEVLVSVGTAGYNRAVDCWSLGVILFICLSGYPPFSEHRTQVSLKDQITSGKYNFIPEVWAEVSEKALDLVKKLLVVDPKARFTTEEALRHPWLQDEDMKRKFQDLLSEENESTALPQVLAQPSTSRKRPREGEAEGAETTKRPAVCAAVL

SMILES: N#Cc1c(C2CCNCC2)cc(-c2c(O)cccc2OCC2CC2)nc1N
- residual activity ([1]; compound 1.0 µM): 111%
- residual activity ([1]; compound 10.0 µM): 91%
- residual activity ([2]; compound 1.0 µM): 92%
- residual activity ([2]; compound 10.0 µM): 46%
- residual activity ([3]; compound 1.0 µM): 32%
- residual activity ([3]; compound 10.0 µM): 6%
- residual activity ([4]; compound 1.0 µM): 95%
- residual activity ([4]; compound 10.0 µM): 92%
- residual activity ([5]; compound 1.0 µM): 60%
- residual activity ([5]; compound 10.0 µM): 34%
- residual activity ([6]; compound 1.0 µM): 43%
- residual activity ([6]; compound 10.0 µM): 7%
- residual activity ([7]; compound 1.0 µM): 68%
- residual activity ([7]; compound 10.0 µM): 46%
- residual activity ([8]; compound 1.0 µM): 90%
- residual activity ([8]; compound 10.0 µM): 56%
- residual activity ([9]; compound 1.0 µM): 90%
- residual activity ([9]; compound 10.0 µM): 86%
- residual activity ([10]; compound 1.0 µM): 71%
- residual activity ([10]; compound 10.0 µM): 67%
- residual activity ([11]; compound 1.0 µM): 101%
- residual activity ([11]; compound 10.0 µM): 53%
- residual activity ([12]; compound 1.0 µM): 77%
- residual activity ([12]; compound 10.0 µM): 41%
- residual activity ([13]; compound 1.0 µM): 113%
- residual activity ([13]; compound 10.0 µM): 62%
- residual activity ([14]; compound 1.0 µM): 129%
- residual activity ([14]; compound 10.0 µM): 79%
- residual activity ([15]; compound 1.0 µM): 27%
- residual activity ([15]; compound 10.0 µM): 4%
- residual activity ([16]; compound 1.0 µM): 62%
- residual activity ([16]; compound 10.0 µM): 50%
- residual activity ([17]; compound 1.0 µM): 102%
- residual activity ([17]; compound 10.0 µM): 83%
- residual activity ([18]; compound 1.0 µM): 101%
- residual activity ([18]; compound 10.0 µM): 76%
- residual activity ([19]; compound 1.0 µM): 85%
- residual activity ([19]; compound 10.0 µM): 80%
- residual activity ([20]; compound 1.0 µM): 118%
- residual activity ([20]; compound 10.0 µM): 82%
- residual activity ([21]; compound 1.0 µM): 115%
- residual activity ([21]; compound 10.0 µM): 102%
- residual activity ([22]; compound 1.0 µM): 113%
- residual activity ([22]; compound 10.0 µM): 102%
- residual activity ([23]; compound 1.0 µM): 68%
- residual activity ([23]; compound 10.0 µM): 20%
- residual activity ([24]; compound 1.0 µM): 53%
- residual activity ([24]; compound 10.0 µM): 24%
- residual activity ([25]; compound 1.0 µM): 89%
- residual activity ([25]; compound 10.0 µM): 83%
- residual activity ([26]; compound 1.0 µM): 83%
- residual activity ([26]; compound 10.0 µM): 87%
- residual activity ([27]; compound 1.0 µM): 117%
- residual activity ([27]; compound 10.0 µM): 55%
- residual activity ([28]; compound 1.0 µM): 88%
- residual activity ([28]; compound 10.0 µM): 76%
- residual activity ([29]; compound 1.0 µM): 45%
- residual activity ([29]; compound 10.0 µM): 6%
- residual activity ([30]; compound 1.0 µM): 39%
- residual activity ([30]; compound 10.0 µM): 11%
- residual activity ([31]; compound 1.0 µM): 105%
- residual activity ([31]; compound 10.0 µM): 55%
- residual activity ([32]; compound 1.0 µM): 96%
- residual activity ([32]; compound 10.0 µM): 69%
- residual activity ([33]; compound 1.0 µM): 89%
- residual activity ([33]; compound 10.0 µM): 68%
- residual activity ([34]; compound 1.0 µM): 83%
- residual activity ([34]; compound 10.0 µM): 34%
- residual activity ([35]; compound 1.0 µM): 77%
- residual activity ([35]; compound 10.0 µM): 57%

SMILES: c1ccc2c(-c3cnn4cc(-c5ccc(N6CCNCC6)cc5)cnc34)ccnc2c1
- residual activity ([1]; compound 0.1 µM): 100%
- residual activity ([1]; compound 1.0 µM): 91%
- residual activity ([1]; compound 10.0 µM): 56%
- residual activity ([2]; compound 0.1 µM): 88%
- residual activity ([2]; compound 1.0 µM): 68%
- residual activity ([2]; compound 10.0 µM): 20%
- residual activity ([3]; compound 0.1 µM): 84%
- residual activity ([3]; compound 1.0 µM): 84%
- residual activity ([3]; compound 10.0 µM): 34%
- residual activity ([4]; compound 0.1 µM): 101%
- residual activity ([4]; compound 1.0 µM): 109%
- residual activity ([4]; compound 10.0 µM): 96%
- residual activity ([5]; compound 0.1 µM): 99%
- residual activity ([5]; compound 1.0 µM): 103%
- residual activity ([5]; compound 10.0 µM): 59%
- residual activity ([6]; compound 0.1 µM): 67%
- residual activity ([6]; compound 1.0 µM): 21%
- residual activity ([6]; compound 10.0 µM): 5%
- residual activity ([7]; compound 0.1 µM): 89%
- residual activity ([7]; compound 1.0 µM): 91%
- residual activity ([7]; compound 10.0 µM): 72%
- residual activity ([8]; compound 0.1 µM): 95%
- residual activity ([8]; compound 1.0 µM): 96%
- residual activity ([8]; compound 10.0 µM): 79%
- residual activity ([9]; compound 0.1 µM): 96%
- residual activity ([9]; compound 1.0 µM): 89%
- residual activity ([9]; compound 10.0 µM): 46%
- residual activity ([10]; compound 0.1 µM): 88%
- residual activity ([10]; compound 1.0 µM): 76%
- residual activity ([10]; compound 10.0 µM): 56%
- residual activity ([11]; compound 0.1 µM): 48%
- residual activity ([11]; compound 10.0 µM): 0%
- residual activity ([12]; compound 0.1 µM): 37%
- residual activity ([12]; compound 1.0 µM): 11%
- residual activity ([12]; compound 10.0 µM): 3%
- residual activity ([13]; compound 0.1 µM): 97%
- residual activity ([13]; compound 1.0 µM): 99%
- residual activity ([13]; compound 10.0 µM): 85%
- residual activity ([14]; compound 0.1 µM): 104%
- residual activity ([14]; compound 10.0 µM): 90%
- residual activity ([15]; compound 0.1 µM): 100%
- residual activity ([15]; compound 1.0 µM): 104%
- residual activity ([15]; compound 10.0 µM): 79%
- residual activity ([16]; compound 0.1 µM): 90%
- residual activity ([16]; compound 1.0 µM): 83%
- residual activity ([16]; compound 10.0 µM): 60%
- residual activity ([17]; compound 0.1 µM): 93%
- residual activity ([17]; compound 1.0 µM): 90%
- residual activity ([17]; compound 10.0 µM): 91%
- residual activity ([18]; compound 0.1 µM): 89%
- residual activity ([18]; compound 1.0 µM): 89%
- residual activity ([18]; compound 10.0 µM): 107%
- residual activity ([19]; compound 0.1 µM): 89%
- residual activity ([19]; compound 1.0 µM): 97%
- residual activity ([19]; compound 10.0 µM): 90%
- residual activity ([20]; compound 0.1 µM): 78%
- residual activity ([20]; compound 1.0 µM): 34%
- residual activity ([20]; compound 10.0 µM): 11%
- residual activity ([21]; compound 0.1 µM): 75%
- residual activity ([21]; compound 1.0 µM): 58%
- residual activity ([21]; compound 10.0 µM): 24%
- residual activity ([22]; compound 0.1 µM): 105%
- residual activity ([22]; compound 1.0 µM): 123%
- residual activity ([22]; compound 10.0 µM): 181%
- residual activity ([23]; compound 0.1 µM): 87%
- residual activity ([23]; compound 1.0 µM): 71%
- residual activity ([23]; compound 10.0 µM): 38%
- residual activity ([24]; compound 0.1 µM): 57%
- residual activity ([24]; compound 1.0 µM): 17%
- residual activity ([24]; compound 10.0 µM): 5%
- residual activity ([25]; compound 0.1 µM): 108%
- residual activity ([25]; compound 1.0 µM): 107%
- residual activity ([25]; compound 10.0 µM): 100%
- residual activity ([26]; compound 0.1 µM): 97%
- residual activity ([26]; compound 1.0 µM): 100%
- residual activity ([26]; compound 10.0 µM): 91%
- residual activity ([27]; compound 0.1 µM): 92%
- residual activity ([27]; compound 1.0 µM): 96%
- residual activity ([27]; compound 10.0 µM): 88%
- residual activity ([28]; compound 0.1 µM): 88%
- residual activity ([28]; compound 1.0 µM): 93%
- residual activity ([28]; compound 10.0 µM): 55%
- residual activity ([29]; compound 0.1 µM): 86%
- residual activity ([29]; compound 1.0 µM): 79%
- residual activity ([29]; compound 10.0 µM): 29%
- residual activity ([30]; compound 0.1 µM): 73%
- residual activity ([30]; compound 1.0 µM): 69%
- residual activity ([30]; compound 10.0 µM): 57%
- residual activity ([31]; compound 0.1 µM): 91%
- residual activity ([31]; compound 1.0 µM): 83%
- residual activity ([31]; compound 10.0 µM): 87%
- residual activity ([32]; compound 0.1 µM): 62%
- residual activity ([32]; compound 1.0 µM): 79%
- residual activity ([32]; compound 10.0 µM): 70%
- residual activity ([33]; compound 1.0 µM): 52%
- residual activity ([33]; compound 10.0 µM): 16%
- residual activity ([34]; compound 0.1 µM): 102%
- residual activity ([34]; compound 1.0 µM): 104%
- residual activity ([34]; compound 10.0 µM): 76%
- residual activity ([35]; compound 0.1 µM): 102%
- residual activity ([35]; compound 1.0 µM): 110%
- residual activity ([35]; compound 10.0 µM): 79%

Source: the kinase profiling compilation of Christmann-Franck et al. (2016)
